Laboratory results: US8030284B2, “Treatment of eye disorders characterized by an elevated intraocular pressure by siRNAs” (Sylentis S.A.U., priority 2004, dated 2011)

Assays:
AC2 = test: siRNA interference in cell cultures, real time PCR of AC2 transcript; format: cell-based, rabbit; conditions: normalized to actin relative to cell control, mean ± SD
Experimental: To check the specificity of the siRNA interference different cell cultures that express the target genes were employed. The cells used for these experiments were: rabbit non-pigmented ciliary epithelium cells NPE, human ciliary epithelium cells OMDC, and human embryonic kidney cells HEK293. The cells are incubated with the corresponding siRNA duplexes, and analysis of the downregulation of expression of the target gene is carried out.
Several examples of techniques well known in the art are as follows: We can perform a single transfection of siRNA duplex using a cationic lipid, such as RNAiFect Transfection Reagent (Qiagen) and Lipofectamine 2000 Reagent (Invitrogen) and assay for silencing 24, 48 and 72 hours after transfection.
A typical transfection protocol can be performed as follows: For one well of a 6-well plate, we transfect using 100 nM as final concentration of siRNA. Following RNAiFect protocol, we seed, the day before transfection, 2-4×10^5 cells per well in 3 ml of an appropriate growth medium, containing DMEM, 10% serum, antibiotics and glutamine, and incubate cells under normal growth conditions (37° C. and 5% CO2). On the day of transfection, cells have to be at 30-50% confluence. We dilute 15 ul of 20 uM siRNA duplex (corresponding to 100 nM final concentration) in 85 ul of Buffer EC-R, to give a final volume of 100 ul, and mix by vortexing. For complex formation, we add 19 ul of RNAiFect Transfection Reagent to the diluted siRNA and mix by pipetting or vortexing. After incubating the samples for 10-15 minutes at room temperature to allow formation of transfection complexes, we add the complexes drop-wise onto the cells with 2.9 ml of fresh growth medium low in antibiotics. After swirling the plates to ensure uniform distribution of the transfection complexes, we incubate the cells under their normal growth conditions. The day after, the complexes are removed and fresh and complete growth medium is added. To monitor gene silencing, cells are collected at 24, 48 and 72 hours post-transfection. The Lipofectamine 2000 Reagent protocol is quite similar. The day before transfection, we seed 2-4×10^5 cells per well in 3 ml of an appropriate growth medium, containing DMEM, 10% serum, antibiotics and glutamine, and incubate cells under normal growth conditions (37° C. and 5% CO2). On the day of transfection, cells have to be at 30-50% confluence. We dilute 12.5 ul of 20 uM siRNA duplex (corresponding to 100 nM final concentration) in 250 ul of DMEM, to give a final volume of 262.5 ul, and mix. Also, 6 ul of Lipofectamine 2000 is diluted in 250 ul of DMEM and mixed. After a 5 minutes incubation at room temperature, the diluted oligomer and the diluted Lipofectamine are combined to allow complex formation during a 20 minutes incubation at room temperature. […]

[1] = test system: normotensive New Zealand rabbit; test: IOP reduction after topical application to the cornea; format: in vivo, New Zealand White rabbit; conditions: topical 40 ul to cornea, once daily for four days; control = contralateral eye with vehicle alone; mean of maximum reduction ± SEM
Excerpt: The New Zealand rabbit is the gold standard in experimental platforms designed to study IOP. It is easy to handle and it has a big eye, similar in size to the human organ. In addition, present equipment to measure IOP is not suited to use in animals with small eyes such as mice or rats. Finally, rabbits have an IOP (around 23 mm Hg) that can be brought down to up to 40% its value using local commercial hypotensive medication. Thus, although it is possible to generate rabbit glaucoma models (for example, surgically blocking episclerotic veins or artificially occluding the trabecular meshwork), we have used normotensive rabbits since, in our hands, the pharmacological decrease in IOP can be easily and reproducibly measured.
Normotensive New Zealand White rabbits (males, 2-3 kg) were used. The animals were kept in individual cages with free access to food and water. They were submitted to artificial 12 hours light/darkness cycles, to avoid uncontrolled circadian oscillations of IOP Animal handling and treatment were carried out in accordance with the European Communities Council Directive (86/609/EEC) and the statement of the Association for Research in Vision and Ophthalmology on the Use of Animals in Ophthalmic and Vision Research.
The drugs were typically administered by instilling a small volume (typically 40 μL) on the corneal surface. Contralateral eyes were treated with the vehicle alone and could be used as controls in each experiment […] there is a sympathy phenomenon with the other eye. Multiple experiments in the same animal should be abolished.
IOP measurements were done using a contact tonometer (TONOPEN XL, Mentor, Norwell, Mass.). The TonoPen tonometer is very convenient due to its reliability and small size. Measurements with this instrument were performed delicately applying the tonometer's sensor to the corneal surface. […] All measurements fell within this interval: the mean baseline value of intraocular pressure was 17.0±0.39 mm Hg (n=100). […] In order to avoid distress to the animal, rabbits were topically anesthetized (oxibuprocaine/tetracaine, 0.4%/1%, in a saline solution (1/4 v:v). The solution was applied (10 μl) to the cornea before each measurement of intraocular pressure was made. siRNA or saline was applied topically to the cornea in volumes of 40 μl.
The standard protocol for the siRNA application in rabbit was as follows. Doses of siRNA in saline solution (0.9% w/v) to a final volume of 40 ul, were applied to one eye each day during four consecutive days. The opposite eye was taken as a control and 40 ul of sterile saline (0.9% w/v) were instilled on it, at the same time points. The IOP was measured before each application and at 2 h, 4 h and 6 h following the instillation, during 10 days. Maximum responses were observed between second and third day. To compare the effect of siRNA with other hypotensive compounds, Xalatan (latanoprost 0.005%) and Trustop (Dorzolamide 2%) were assayed and IOP measured in the same conditions.
Those siRNAs selected by the in vitro assays were applied to the animal model, following the protocol previously described. To avoid the effect of IOP fluctuations due to circadian cycles, all the applications were performed at the same time. To determine the siRNA effect, intraocular pressures (IOPs) were measured as previously mentioned.
The data are summarized in table II where values represent the mean of the maximum percentage of IOP reduction after siRNA treatment once normalized and their standard deviations. The decrease in IOP was statistically significant for all the treated targets. […] The siRNAs used in these experiments correspond to the human targets given in FIGS. 2A-2R as follows: • AC2: rabbit sequence homologous to human SEQ. ID. 73 • AC4: rabbit sequence identical to human SEQ. ID. 5 • AC12: rabbit sequence identical to human SEQ. ID. 522 • ADRB1: rabbit sequence identical to human SEQ. ID. 105 • ADRB2: rabbit sequence homologous to human SEQ. ID. […]

Compound | % of gene transcript level (AC2; 24 h siRNA treatment) [%] | % of gene transcript level (AC2; 48 h siRNA treatment) [%] | IOP reduction (% of the control) [1]
AC2 siRNA3: siRNA against AC2: rabbit sequence identical to human SEQ. ID. 66 (CTTCACTTGGTTCACTGGA; listed as DNA, chemistry not given here; listed as Homo sapiens) | 35.30 ± 9.73 | 51.14 ± 16.49 | 
CCN[C@H]1C[C@H](C)S(=O)(=O)c2sc(S(N)(=O)=O)cc21 [Dorzolamide, reference compound] |  |  | 16.41 ± 2.38 % of the control
ATP1B2: siRNA against ATP1B2: rabbit sequence identical to human SEQ. ID. 1820 (GTTCCACGTGAACTACACA; listed as DNA, chemistry not given here; listed as Homo sapiens) |  |  | 16.32 ± 0.91 % of the control
AGTR2: siRNA against AGTR2: rabbit sequence identical to human SEQ. ID. 774 (GCATCTTATATAGTTCCCC; listed as DNA, chemistry not given here; listed as Homo sapiens) |  |  | 11.22 ± 1.53 % of the control
CC(C)OC(=O)CCC/C=C\C[C@@H]1[C@@H](CC[C@@H](O)CCc2ccccc2)[C@H](O)C[C@@H]1O [Latanoprost, latanoprost, reference compound] |  |  | 25.46 ± 5.24 % of the control
AC2 siRNA2: siRNA against AC2: rabbit sequence identical to human SEQ. ID. 54 (CTTCCCTGAGGATCCTCAA; listed as DNA, chemistry not given here; listed as Homo sapiens) | 37.97 ± 9.78 | 61.45 ± 9.62 | 
ADRB1: siRNA against ADRB1: rabbit sequence identical to human SEQ. ID. 105 (CGACCCCAAGTGCTGCGAC; listed as DNA, chemistry not given here; listed as Homo sapiens) |  |  | 28.04 ± 2.98 % of the control
ATP1A1: siRNA against ATP1A1: rabbit sequence identical to human SEQ. ID. 1399 (CTGGAACTCTGACTCAGAA; listed as DNA, chemistry not given here; listed as Homo sapiens) |  |  | 18.13 ± 1.39 % of the control
